Measurements published in patent US11560370B1, “5-membered heteroaryl carboxamide compounds for treatment of HBV” (Assembly Biosciences, Inc., priority 2018, dated 2023).
Where “and” joins values, the source holds several entries; their conditions need not be identical. Identical values can stand only once.

Each molecule was assayed on HBV (assay: Viral production from HepAD38 cells, viral load by qPCR of HBV core sequence). Conditions: 5 days, supernatant HBV DNA by qPCR, read-out: Viral Load EC50 Activity range.
Format: cell-based
Procedure, shortened: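 HepAD38 cells in tetracycline-free medium with 2% FBS, 50,000 cells/well, treated 5 days at 37° C. with compound from 10 μM top concentration (1% DMSO final). Supernatant HBV DNA measured by TaqMan qPCR of core sequence against standards, versus DMSO wells; viability by CellTiter-Glo; EC50/CC50 by four-parameter fit.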

Molecule | EC50
Cn1nc(C2CC3CC(O)(CC(=O)O)CC3C2)c(C(=O)Nc2ccc(F)c(Cl)c2)c1N (stereo not drawn) [AIA-241] | < 100 nM
COc1cc(-c2nccn2C)ccc1C1CCC(c2nn(C)c(N)c2C(=O)Nc2ccc(F)c(Cl)c2)C1 (single isomer, unassigned) [AIA-367-2, 5-Amino-N-(3-chloro-4-fluorophenyl)-3-(3-(2-methoxy-4-(1-methyl-1H-imidazol-2-yl)phenyl)cyclopentyl)-1-methyl-1H-pyrazole-4-carboxamide] | < 100 nM
COc1cccc([C@H]2CC[C@H](c3nn(C)c(N)c3C(=O)Nc3ccc(F)c(Cl)c3)C2)c1 [AIA-276C] | < 100 nM
5-Amino-N-(3-chloro-4-fluorophenyl)-3-(3-(3-chlorophenyl)cyclopentyl)-1-methyl-1H-pyrazole-4-carboxamide [AIA-273] | < 100 nM and 100 to 500 nM
Cn1nc(C2CC3CC(CCO)CC3C2)c(C(=O)Nc2ccc(F)c(Cl)c2)c1N (stereo not drawn) [AIA-019] | < 100 nM
Cn1nc(C2CC3CC(N4CCCS4(=O)=O)CC3C2)c(C(=O)Nc2ccc(F)c(Cl)c2)c1N (stereo not drawn) [AIA-044] | < 100 nM
CS(=O)(=O)CC1(O)CC2CC(c3n[nH]c(N)c3C(=O)Nc3ccc(F)c(Cl)c3)CC2C1 (stereo not drawn) [AIA-310] | < 100 nM
Cn1nc(C2CC3CC(N4CCNC4=O)CC3C2)c(C(=O)Nc2ccc(F)c(Cl)c2)c1N (stereo not drawn) [AIA-047] | < 100 nM
Cn1nc([C@H]2CC3C/C(=N/O)C[C@@H]3C2)c(C(=O)Nc2ccc(F)c(Cl)c2)c1N (stereo partly drawn) [AIA-032-B] | < 100 nM
Cn1nc(C2CC3CC4(CC3C2)OCCO4)c(C(=O)Nc2ccc(F)c(Cl)c2)c1N (stereo not drawn) [AIA-290] | < 100 nM
COc1cccc(C2CCC(c3nn(C)c(N)c3C(=O)Nc3ccc(F)c(Cl)c3)C2)c1 (stereo not drawn) [AIA-276] | < 100 nM
Cn1nc(C2CC3CC(S(C)(=O)=O)CC3C2)c(C(=O)Nc2ccc(F)c(Cl)c2)c1N (stereo not drawn) [AIA-030] | < 100 nM
Cn1nc(C2CCN(c3ccccc3)C2)c(C(=O)Nc2ccc(F)c(Cl)c2)c1N (stereo not drawn) [AIA-262] | 100 to 500 nM
CC(C)OCC1(O)CC2CC(c3nn(C)c(N)c3C(=O)Nc3ccc(F)c(Cl)c3)CC2C1 (single isomer, unassigned) [AIA-339-2, 5-Amino-N-(3-chloro-4-fluorophenyl)-3-(5-hydroxy-5-(isopropoxymethyl)octahydropentalen-2-yl)-1-methyl-1H-pyrazole-4-carboxamide] | 100 to 500 nM

Same assay, conditions: Hepatitis B virus, HePAD38, 120 h, 5 days, supernatant HBV DNA by qPCR, read-out: Viral Load EC50 Activity range

Molecule | EC50 [nM]
CC(C)N1CC2CC(c3nn(C)c(N)c3C(=O)Nc3ccc(F)c(Cl)c3)CC2C1 (stereo not drawn) [AIA-053, 5-Amino-N-(3-chloro-4-fluorophenyl)-3-(2-isopropyloctahydrocyclopenta[c]pyrrol-5-yl)-1-methyl-1H-pyrazole-4-carboxamide] | 500 to 10000
Cn1nc(C2CCC(c3cccnc3)C2)c(C(=O)Nc2ccc(F)c(Cl)c2)c1N (stereo not drawn) [CP-AIA-270, 5-Amino-N-(3-chloro-4-fluorophenyl)-1-methyl-3-(3-(pyridin-3-yl)cyclopentyl)-1H-pyrazole-4-carboxamide] | < 100
CN(C)C(=O)CC1CC2CC(c3nn(C)c(N)c3C(=O)Nc3ccc(F)c(Cl)c3)CC2C1 (stereo not drawn) [AIA-020, 5-Amino-N-(3-chloro-4-fluorophenyl)-3-(5-(2-(dimethylamino)-2-oxoethyl)octahydropentalen-2-yl)-1-methyl-1H-pyrazole-4-carboxamide] | < 100
COc1cc(C(=O)NCCS(C)(=O)=O)ccc1C1CCC(c2nn(C)c(N)c2C(=O)Nc2ccc(F)c(Cl)c2)C1 (stereo not drawn) [AIA-387-1] | 100 to 500
Cn1nc(C2CCC(c3ccc(F)cc3)C2)c(C(=O)Nc2ccc(F)c(Cl)c2)c1N (stereo not drawn) [AIA-281, 5-Amino-N-(3-chloro-4-fluorophenyl)-3-(3-(4-fluorophenyl)cyclopentyl)-1-methyl-1H-pyrazole-4-carboxamide] | < 100
COc1cc(-c2cn(C)cn2)ccc1C1CCC(c2nn(C)c(N)c2C(=O)Nc2ccc(F)c(Cl)c2)C1 (single isomer, unassigned) [AIA-365-2, 5-Amino-N-(3-chloro-4-fluorophenyl)-3-(3-(2-methoxy-4-(1-methyl-1H-imidazol-4-yl)phenyl)cyclopentyl)-1-methyl-1H-pyrazole-4-carboxamide] | < 100
COc1cc(-c2cscn2)ccc1C1CCC(c2nn(C)c(N)c2C(=O)Nc2ccc(F)c(Cl)c2)C1 (stereo not drawn) [AIA-372, 5-Amino-N-(3-chloro-4-fluorophenyl)-3-(3-(2-methoxy-4-(thiazol-4-yl)phenyl)cyclopentyl)-1-methyl-1H-pyrazole-4-carboxamide] | < 100
Cn1nc(C2CC3CC(O)(CS(=O)(=O)CCCN4CCNC(=O)C4)CC3C2)c(C(=O)Nc2ccc(F)c(Cl)c2)c1N (stereo not drawn) [AIA-350, 5-Amino-N-(3-chloro-4-fluorophenyl)-3-(5-hydroxy-5-(((3-(3-oxopiperazin-1-yl)propyl)sulfonyl)methyl)octahydropentalen-2-yl)-1-methyl-1H-pyrazole-4-carboxamide] | 500 to 10000
Cn1nc(C2CC3CC(O)(CSCCN4CCOCC4)CC3C2)c(C(=O)Nc2ccc(F)c(Cl)c2)c1N (single isomer, unassigned) [AIA-284-1, 5-Amino-N-(3-chloro-4-fluorophenyl)-3-(5-hydroxy-5-(((2-morpholinoethyl)thio)methyl)octahydropentalen-2-yl)-1-methyl-1H-pyrazole-4-carboxamide] | < 100
Cn1nc(C2CC3CC(CC(N)=O)CC3C2)c(C(=O)Nc2ccc(F)c(Cl)c2)c1N (stereo not drawn) [AIA-021, 5-Amino-3-(5-(2-amino-2-oxoethyl)octahydropentalen-2-yl)-N-(3-chloro-4-fluorophenyl)-1-methyl-1H-pyrazole-4-carboxamide] | < 100
Cn1nc(C2CC3CC(O)(CSC(C)(C)C)CC3C2)c(C(=O)Nc2ccc(F)c(Cl)c2)c1N (stereo not drawn) [AIA-262-1, 5-Amino-3-(5-((tert-butylthio)methyl)-5-hydroxyoctahydropentalen-2-yl)-N-(3-chloro-4-fluorophenyl)-1-methyl-1H-pyrazole-4-carboxamide] | < 100
Cn1nc(C2CC3CC(OCC(F)(F)F)CC3C2)c(C(=O)Nc2ccc(F)c(Cl)c2)c1N (stereo not drawn) [AIA-101, 5-Amino-N-(3-chloro-4-fluorophenyl)-1-methyl-3-(5-(2,2,2-trifluoroethoxy)octahydropentalen-2-yl)-1H-pyrazole-4-carboxamide] | < 100
Cn1nc(C2CCC(c3ccc(Cl)cc3)C2)c(C(=O)Nc2ccc(F)c(Cl)c2)c1N (stereo not drawn) [AIA-274, 5-Amino-N-(3-chloro-4-fluorophenyl)-3-(3-(4-chlorophenyl)cyclopentyl)-1-methyl-1H-pyrazole-4-carboxamide] | 100 to 500
Cn1nc(C2CC3CC(N4CCCC4)CC3C2)c(C(=O)Nc2ccc(F)c(Cl)c2)c1N (stereo not drawn) [AIA-040, 5-Amino-N-(3-chloro-4-fluorophenyl)-1-methyl-3-(5-(pyrrolidin-l-yl)octahydropentalen-2-yl)-1H-pyrazole-4-carboxamide] | < 100
Cn1nc(C2CC3CC(O)(C4CC4)CC3C2)c(C(=O)Nc2ccc(F)c(Cl)c2)c1N (stereo not drawn) [AIA-077, 5-Amino-N-(3-chloro-4-fluorophenyl)-3-(5-cyclopropyl-5-hydroxyoctahydropentalen-2-yl)-1-methyl-1H-pyrazole-4-carboxamide] | < 100
Cn1nc(C2CC3CC(O)(CN4CCCCC4)CC3C2)c(C(=O)Nc2ccc(F)c(Cl)c2)c1N (single isomer, unassigned) [AIA-363-1, 5-Amino-N-(3-chloro-4-fluorophenyl)-3-(5-hydroxy-5-(piperidin-1-ylmethyl)octahydropentalen-2-yl)-1-methyl-1H-pyrazole-4-carboxamide] | 100 to 500
